According to publication PMC10582583, “The novel cyclophilin inhibitor C105SR reduces hepatic ischaemia–reperfusion injury via mitoprotection” (JHEP Reports, 2023):

target: CypD (Homo sapiens, UniProt P30405); test: CypD PPIase activity, chymotrypsin-coupled assay; assay type: biochemical; conditions: Table 1
Sequence (P30405 30-207): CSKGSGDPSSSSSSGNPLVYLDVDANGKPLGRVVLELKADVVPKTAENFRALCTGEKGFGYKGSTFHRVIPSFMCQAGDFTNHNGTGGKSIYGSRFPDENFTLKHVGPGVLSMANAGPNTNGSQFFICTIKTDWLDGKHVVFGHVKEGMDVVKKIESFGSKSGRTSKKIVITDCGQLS

Compound | IC50 [µM]
COc1cc(OC)c(C(NC(=O)NCc2ccc(N)cc2)C(=O)N2CCCC2c2cccc3ccsc23)cc1Br (stereo not shown) [Compound C112, 1-(4-aminobenzyl)-3-(2-(2-(benzo[b]thiophen-7-yl)pyrrolidin-1-yl)-1-(5-bromo-2,4-dimethoxyphenyl)-2-oxoethyl)urea] | 0.48 ± 0.04
CSc1ccccc1C1CCCN1C(=O)C(NC(=O)NC(C)c1ccc(N)c(F)c1)c1ccccc1 (stereo not shown) [Compound C101, 1-(1-(4-amino-3-fluorophenyl)ethyl)-3-(2-(2-(2-(methylthio)phenyl)pyrrolidin-1-yl)-2-oxo-1-phenylethyl)urea] | 0.4 ± 0.19
CSc1ccccc1C1CCCN1C(=O)C(NC(=O)NCC1CC2(CNC2)C1)c1ccccc1 (stereo not shown) [Compound C119, 1-((2-azaspiro[3.3]heptan-6-yl)methyl)-3-(2-(2-(2-(methylthio)phenyl)pyrrolidin-1-yl)-2-oxo-1-phenylethyl)urea] | 0.15 ± 0.03
CSc1ccccc1C1CCCN1C(=O)C(NC(=O)NCc1cccc2[nH]ccc12)c1ccccc1 (stereo not shown) [Compound C172, 1-((1H-indol-4-yl)methyl)-3-(2-(2-(2-(methylthio)phenyl)pyrrolidin-1-yl)-2-oxo-1-phenylethyl)urea] | 0.21 ± 0.07
CSc1ccccc1C1CCCN1C(=O)C(NC(=O)NCc1cccc2[nH]ncc12)c1ccccc1 (stereo not shown) [Compound C178, 1-((1H-indazol-4-yl)methyl)-3-(2-(2-(2-(methylthio)phenyl)pyrrolidin-1-yl)-2-oxo-1-phenylethyl)urea] | 0.4 ± 0.19
CSc1ccccc1C1CCCN1C(=O)C(NC(=O)NN1Cc2ccc(N)cc2C1)c1ccccc1 (stereo not shown) [Compound C185, 1-(5-aminoisoindolin-2-yl)-3-(2-(2-(2-(methylthio)phenyl)pyrrolidin-1-yl)-2-oxo-1-phenylethyl)urea] | 0.59 ± 0.19
CCNC(=O)N1CCCc2c(CNC(=O)NC(C(=O)N3CCCC3c3ccccc3SC)c3ccccc3)cccc21 (stereo not shown) [Compound C177, N-ethyl-5-((3-(2-(2-(2-(methylthio)phenyl)pyrrolidin-1-yl)-2-oxo-1-phenylethyl)ureido)methyl)-3,4-dihydroquinoline-1(2H)-carboxamide] | 0.49 ± 0.32
CSc1ccccc1C1CCCN1C(=O)C(NC(=O)NCc1cccc2c1OCCO2)c1ccccc1 (stereo not shown) [Compound C129, 1-((2,3-dihydrobenzo[b][1,4]dioxin-5-yl)methyl)-3-(2-(2-(2-(methylthio)phenyl)pyrrolidin-1-yl)-2-oxo-1-phenylethyl)urea] | 0.26 ± 0.07
COc1ccc(OC)c(C(NC(=O)NCc2ccc(N)cc2)C(=O)N2CCCC2c2cccc3ccsc23)c1 (stereo not shown) [Compound C108, 1-(4-aminobenzyl)-3-(2-(2-(benzo[b]thiophen-7-yl)pyrrolidin-1-yl)-1-(2,5-dimethoxyphenyl)-2-oxoethyl)urea] | 0.48 ± 0.23
COc1ccc(Br)cc1C(NC(=O)NC(C)c1ccc(N)c(F)c1)C(=O)N1CCCC1c1ccccc1SC (stereo not shown) [Compound C123, 1-(1-(4-amino-3-fluorophenyl)ethyl)-3-(1-(5-bromo-2-methoxyphenyl)-2-(2-(2-(methylthio)phenyl)pyrrolidin-1-yl)-2-oxoethyl)urea] | 1.26 ± 0.37
COc1ccc(OC)c(C(NC(=O)NCc2cccc3[nH]ccc23)C(=O)N2CCCC2c2ccccc2SC)c1 (stereo not shown) [Compound C170, 1-((1H-indol-4-yl)methyl)-3-(1-(2,5-dimethoxyphenyl)-2-(2-(2-(methylthio)phenyl)pyrrolidin-1-yl)-2-oxoethyl)urea] | 1.05 ± 0.72
CSc1ccccc1C1CCCN1C(=O)C(NC(=O)NCc1ccc(N)cc1)C1CCCCC1 (stereo not shown) [Compound C71, 1-(4-aminobenzyl)-3-(1-cyclohexyl-2-(2-(2-(methylthio)phenyl)pyrrolidin-1-yl)-2-oxoethyl)urea] | 0.79 ± 0.21
CSc1ccccc1C1CCCN1C(=O)C(NC(=O)NCc1cccc2ccsc12)c1ccccc1 (stereo not shown) [Compound C142, 1-(benzo[b]thiophen-7-ylmethyl)-3-(2-(2-(2-(methylthio)phenyl)pyrrolidin-1-yl)-2-oxo-1-phenylethyl)urea] | 0.42 ± 0.1
